Several values for one entry are separate records, joined by “and”; a condition that tells them apart may be missing. Equal entries are not always repeated. Structures can show the parent of a compound that is named as a salt. Each block holds one molecule with its values, some of them ahead of it.
Assay: Analysis of optical characteristics (absorption, fluorescence emission, quantum yield) in solvents
Assay type: physicochemical
Details: for peak emission (λmax): aqueous solution (H2O); for Relative fluorescence Emission Intensitynorm: normalized fluorescence intensity; for Relative fluorescence Emission Intensitynorm / Fluorescence Emission Intensity / Peak emission wavelength λmax em(nm): H2O at 2 μM; for Peak emission wavelength λmax em(nm): excited at the longest absorption maxima
Description: Fluorescence emission spectra were obtained at 20° C. using a JASCO FP-6500 spectrofluorometer, a 10 mM stock solution prepared by dissolving an indolizino[3,2-c]quinoline compound in DMSO was diluted in a solvent. […] Absorption spectra were recorded at room temperature using a Perkin Elmer Lamda 20 UV/VIS spectrometer. […]
Further, the compounds (excluding Entry #51-57, etc.) of Formula 1 were subjected to spectrum analyses in various solvents, and the results are shown in Tables 6 and 7, and FIGS. 5C and 5D.

SMILES: c1cc(-c2nc3ccccc3c3cc4ccccn4c23)nc(-c2nc3ccccc3c3cc4ccccn4c23)c1 [IQ 5-D, 2,6-bis(indolizino[3,2-c]quinolin-6-yl)pyridine]
λex(nm) (Table 6): 402 nm and 422 nm
peak emission (λmax): 543 nm

SMILES: COc1ccc(-c2c3c(cc4ccccn43)c3ccccc3[n+]2CCCl)cc1 [IQ 6-S2-Cl, 5-(2-chloroethyl)-6-(4-methoxyphenyl)indolizino[3,2-c]quinolin-5-ium trifluoromethanesulfonate]
solvent-dependent (environment-sensitive) tendency of the emission: hardly showed an environment-sensitive optical characteristic
λex(nm) (Table 6): 464 nm

SMILES: CCCCn1cc(-c2c3c4ccccc4nc(-c4ccc(OC)cc4)c3n3ccccc23)nn1 [IQ 6-T, 12-(1-butyl-1H-1,2,3-triazol-4-yl)-6-(4-methoxyphenyl)indolizino[3,2-c]quinoline]
λex(nm) (Table 6): 403 nm

SMILES: COc1ccc(-c2nc3ccccc3c3c(-c4cn(CCOCCOCCOCCNC(=O)CCCCCC5[C@H]6NC(=O)N[C@H]6C[S+]5[O-])nn4)c4ccccn4c23)cc1 (stereo partly drawn) [IQ 6-T-B, N-(2-(2-(2-(2-(4-(6-(4-methoxyphenyl)indolizino[3,2-c]quinolin-12-yl)-1H-1,2,3-triazol-1-yl)ethoxy)ethoxy)ethoxy)ethyl)-6-((3aS,6aR)-5-oxido-2-oxohexahydro-1H-thieno[3,4-d]imidazol-4-yl)hexanamide]
λex(nm) (Table 6): 437 nm

SMILES: COC(=O)c1c2c3ccccc3nc(-c3ccc[nH]3)c2n2ccccc12 [IQ 21, Methyl 6-(1H-pyrrol-2-yl)indolizino[3,2-c]quinoline-12-carboxylate]
solvent-dependent (environment-sensitive) tendency of the emission: blue-shift
peak emission (λmax): 433 nm

SMILES: CCOC(=O)c1c2c3ccccc3nc(-c3ccc([N+](=O)[O-])cc3)c2n2ccccc12 [IQ 26, ethyl 6-(4-nitrophenyl)indolizino[3,2-c]quinoline-12-carboxylate]
fluorescence (intensity, in words): did not induce fluorescence

SMILES: CCOC(=O)c1c2c3ccccc3nc(-c3cccc(F)c3)c2n2ccccc12 [IQ 28, ethyl 6-(3-fluorophenyl)indolizino[3,2-c]quinoline-12-carboxylate]
solvent-dependent (environment-sensitive) tendency of the emission: solvatochromic effect

SMILES: CCOC(=O)c1c2c3ccccc3nc(-c3ccc(OC)c(OC)c3)c2n2ccccc12 [IQ 30, ethyl 6-(3,4-dimethoxyphenyl)indolizino[3,2-c]quinoline-12-carboxylate]
solvent-dependent (environment-sensitive) tendency of the emission: solvatochromic effect

SMILES: C#Cc1c2c3ccccc3nc(-c3ccc(OC)cc3)c2n2ccccc12 [IQ 55, 12-ethynyl-6-(4-methoxyphenyl)indolizino[3,2-c]quinoline]
solvent-dependent (environment-sensitive) tendency of the emission: hardly showed an environment-sensitive optical characteristic

SMILES: COc1ccc(-c2nc3ccccc3c3cc4cc(C#N)ccn4c23)cc1 [IQ 67, 6-(4-methoxyphenyl)indolizino[3,2-c]quinoline-10-carbonitrile]
fluorescence (intensity, in words): further high fluorescence intensity in an aqueous solution

SMILES: COc1ccc(-c2nc3ccccc3c3cc4c5ccccc5ccn4c23)cc1 [IQ 77, 6-(4-methoxyphenyl)benzo[7,8]indolizino[3,2-c]quinoline]
fluorescence (intensity, in words): very high fluorescence intensity at a blue wavelength in EtOH and DMSO

SMILES: CCc1nc2ccccc2c2cc3c4ccccc4ccn3c12 [IQ 79, 6-ethylbenzo[7,8]indolizino[3,2-c]quinoline]
fluorescence (intensity, in words): very high fluorescence intensity at a blue wavelength in EtOH and DMSO

SMILES: Nc1ccc(-c2nc3ccccc3c3cc4ccccn4c23)cc1 [IQ-B1, 4-(indolizino[3,2-c]quinolin-6-yl)aniline]
solvent-dependent (environment-sensitive) tendency of the emission: high solvent-dependent (i.e., environment-sensitive) tendency

SMILES: Oc1ccc(-c2nc3ccccc3c3cc4ccccn4c23)cc1 [IQ-B2, 4-(indolizino[3,2-c]quinolin-6-yl)phenol]
solvent-dependent (environment-sensitive) tendency of the emission: high solvent-dependent (i.e., environment-sensitive) tendency

SMILES: COc1ccc(-c2nc3ccccc3c3cc4cc(/C=C/n5ccnc5)ccn4c23)cc1 [IQ-B20, (E)-10-(2-(1H-imidazol-1-yl)vinyl)-6-(4-methoxyphenyl)indolizino[3,2-c]quinoline]
fluorescence (intensity, in words): high fluorescence in other solvents as well as an aqueous solution

SMILES: COc1ccc(-c2nc3ccccc3c3cc4cc(-c5ccc(C(=O)Nc6ccccc6)cc5)ccn4c23)cc1 [IQ-B35, 4-(6-(4-methoxyphenyl)indolizino[3,2-c]quinolin-10-yl)-N-phenylbenzamide]
λex(nm) (Table 7): 427 nm

SMILES: CCN(CC)C(=O)c1ccc(-c2ccn3c(c2)cc2c4ccccc4nc(-c4ccc(OC)cc4)c23)cc1 [IQ-B36, N,N-diethyl-4-(6-(4-methoxyphenyl)indolizino[3,2-c]quinolin-10-yl)benzamide]
λex(nm) (Table 7): 422 nm

SMILES: Cc1cccn2c1cc1c3ccccc3nc(-c3ccc([N+](=O)[O-])cc3)c12 [compound 13]
quantum yield (Φ) (DW, standard Rhodamine 6G): 0.000
quantum yield (Φ) (EtOH, standard Coumarin 153): 0.000
Relative fluorescence Emission Intensitynorm: 0.00

More lines, main results first:

λex(nm) (Table 6): 458 nm
SMILES: COc1ccc(-c2c3c(cc4ccccn43)c3ccccc3[n+]2C)cc1 [IQ 6-S1-Me, 6-(4-methoxyphenyl)-5-methylindolizino[3,2-c]quinolin-5-ium methyl sulfate]
solvent-dependent (environment-sensitive) tendency of the emission: hardly showed an environment-sensitive optical characteristic

λex(nm) (Table 7): 415 nm
SMILES: C(=C\c1nc2ccccc2c2cc3ccccn3c12)/c1ccccc1 [IQ-B4, (E)-6-styrylindolizino[3,2-c]quinoline]

λex(nm) (Table 7): 427 nm
maximum wavelength of fluorescence (Tris buffer (pH 7.5)): 531 nm
SMILES: COc1ccc(-c2nc3ccccc3c3cc4cc(C=O)ccn4c23)cc1 [IQ-B11, 6-(4-methoxyphenyl)indolizino[3,2-c]quinoline-10-carbaldehyde]

Abs maximum λ for UV: 344 nm
Stokes shift: ≥ 180 nm
SMILES: COc1ccc(/C=C/c2nc3ccccc3c3cc4ccccn4c23)cc1 [IQ-B12, (E)-6-(4-methoxystyryl)indolizino[3,2-c]quinoline]

λex(nm) (Table 7): 422 nm
SMILES: CN(/N=C/c1nc2ccccc2c2cc3ccccn3c12)c1ccccc1 [IQ-B16, (E)-6-((2-methyl-2-phenylhydrazineylidene)methyl)indolizino[3,2-c]quinoline]

fluorescence (intensity, in words): high fluorescence in DMSO
λex(nm) (Table 7): 434 nm
SMILES: COc1ccc(-c2nc3ccccc3c3cc4cc(-c5ccc(C=O)cc5)ccn4c23)cc1 [IQ-B23, 4-(6-(4-methoxyphenyl)indolizino[3,2-c]quinolin-10-yl)benzaldehyde]

fluorescence (intensity, in words): high fluorescence in DMSO
λex(nm) (Table 7): 444 nm
SMILES: COc1ccc(-c2nc3ccccc3c3cc4cc(/C=C/C=O)ccn4c23)cc1 [IQ-B25, (E)-3-(6-(4-methoxyphenyl)indolizino[3,2-c]quinolin-10-yl)acrylaldehyde]

λex(nm) (Table 7): 423 nm
SMILES: COc1ccc(-c2nc3ccccc3c3cc4cc(-c5ccc6ccccc6c5)ccn4c23)cc1 [IQ-B39, 6-(4-methoxyphenyl)-10-(naphthalen-2-yl)indolizino[3,2-c]quinoline]

λex(nm) (Table 7): 431 nm
SMILES: COc1ccc(-c2nc3ccccc3c3cc4cc(-c5ccc(C#N)cc5)ccn4c23)cc1 [IQ-B43, 4-(6-(4-methoxyphenyl)indolizino[3,2-c]quinolin-10-yl)benzonitrile]

λex(nm) (Table 7): 436 nm
SMILES: COc1ccc(-c2nc3ccccc3c3cc4cc(/C=C/C#N)ccn4c23)cc1 [IQ-B44, (E)-3-(6-(4-methoxyphenyl)indolizino[3,2-c]quinolin-10-yl)acrylonitrile]

quantum yield (Φ) (DW, standard Rhodamine 6G): 0.000
quantum yield (Φ) (EtOH, standard Coumarin 153): 0.000
Relative fluorescence Emission Intensitynorm: 0.00
SMILES: O=[N+]([O-])c1ccc(-c2nc3ccccc3c3cc4ccccn4c23)cc1 [compound 2]

Maximum absorption wavelength λmax abs(nm): 400 nm
quantum yield (Φ) (DW, standard Rhodamine 6G): 0.005
quantum yield (Φ) (EtOH, standard Coumarin 153): 0.196
Fluorescence Emission Intensity: 4.7
Peak emission wavelength λmax em(nm): 532 nm
Relative fluorescence Emission Intensitynorm: 0.02
SMILES: c1ccc(-c2nc3ccccc3c3cc4ccccn4c23)nc1 [compound 5]

quantum yield (Φ) (DW, standard Rhodamine 6G): 0.026
quantum yield (Φ) (EtOH, standard Coumarin 153): 0.756
Fluorescence Emission Intensity: 60.8
Peak emission wavelength λmax em(nm): 527.5 nm
Relative fluorescence Emission Intensitynorm: 0.26
SMILES: COc1cc(OC)cc(-c2nc3ccccc3c3cc4ccccn4c23)c1 [compound 7]

Maximum absorption wavelength λmax abs(nm): 407 nm
quantum yield (Φ) (DW, standard Rhodamine 6G): 0.006
quantum yield (Φ) (EtOH, standard Coumarin 153): 0.111
Fluorescence Emission Intensity: 7.5
Peak emission wavelength λmax em(nm): 536 nm
Relative fluorescence Emission Intensitynorm: 0.03
SMILES: Clc1ccc(-c2nc3ccccc3c3cc4ccccn4c23)s1 [compound 11]

Maximum absorption wavelength λmax abs(nm): 395 nm
quantum yield (Φ) (DW, standard Rhodamine 6G): 0.131
quantum yield (Φ) (EtOH, standard Coumarin 153): 0.623
Fluorescence Emission Intensity: 11.8
Peak emission wavelength λmax em(nm): 531.5 nm
Relative fluorescence Emission Intensitynorm: 0.05
SMILES: Cc1cccn2c1cc1c3ccccc3nc(-c3ccc(Br)cc3)c12 [compound 12]

Reference: patent publication US10787448B2, “Indolizino [3,2-C] quinoline-based fluorescent probe” (SEOUL NATIONAL UNIVERSITY R & DB FOUNDATION, priority 2015, dated 2020)
